Results as given in the NIST ThermoML archive (doi:10.1016/j.tca.2015.02.014).
Numbers after ± are expanded uncertainties.

Test: mn = molality of the nth substance listed, in mol/kg
Details: 100 kPa, Liquid; for viscosity: Capillary tube (Ostwald / Ubbelohde) method; for speed of sound: Frequency=3 MHz, Sing-around technique in a fixed-path interferometer; for mass density: Vibrating tube method

C[C@H](CCC(=O)[O-])[C@H]1CC[C@H]2[C@@H]3[C@H](O)C[C@@H]4C[C@H](O)CC[C@]4(C)[C@H]3C[C@H](O)[C@]12C.[Na+] [sodium cholate] + O
Details | mass density, 293.15 K [kg/m3] | mass density, 298.15 K [kg/m3] | mass density, 303.15 K [kg/m3] | speed of sound, 293.15 K [m/s] | speed of sound, 298.15 K [m/s] | speed of sound, 303.15 K [m/s] | viscosity, 293.15 K [mPa·s] | viscosity, 298.15 K [mPa·s] | viscosity, 303.15 K [mPa·s]
m1 = 0.001 | 998.33 ± 0.12 | 997.158 ± 0.12 | 995.785 ± 0.13 | 1483 ± 1.3 | 1497 ± 1.3 | 1509.5 ± 1.3 | 1.003 ± 0.021 | 0.8906 ± 0.021 | 0.798 ± 0.021
m1 = 0.002 | 998.422 ± 0.12 | 997.267 ± 0.12 | 995.901 ± 0.13 | 1483.3 ± 1.4 | 1497.3 ± 1.3 | 1509.8 ± 1.3 | 1.004 ± 0.021 | 0.8925 ± 0.021 | 0.7991 ± 0.021
m1 = 0.003 | 998.533 ± 0.12 | 997.369 ± 0.12 | 996.001 ± 0.13 | 1483.6 ± 1.4 | 1497.6 ± 1.3 | 1510 ± 1.3 | 1.005 ± 0.021 | 0.8939 ± 0.021 | 0.7999 ± 0.021
m1 = 0.004 | 998.618 ± 0.12 | 997.455 ± 0.12 | 996.102 ± 0.13 | 1483.8 ± 1.4 | 1497.9 ± 1.3 | 1510.2 ± 1.3 | 1.007 ± 0.021 | 0.8955 ± 0.021 | 0.8022 ± 0.021
m1 = 0.006 | 998.805 ± 0.12 | 997.635 ± 0.12 | 996.301 ± 0.13 | 1484.4 ± 1.4 | 1498.4 ± 1.3 | 1510.7 ± 1.3 | 1.011 ± 0.021 | 0.8987 ± 0.021 | 0.8047 ± 0.021
m1 = 0.008 | 999.003 ± 0.12 | 997.835 ± 0.12 | 996.513 ± 0.13 | 1485 ± 1.4 | 1499.1 ± 1.3 | 1511.3 ± 1.3 | 1.016 ± 0.021 | 0.902 ± 0.021 | 0.8075 ± 0.021
m1 = 0.01 | 999.241 ± 0.12 | 998.035 ± 0.12 | 996.724 ± 0.13 | 1485.8 ± 1.4 | 1499.7 ± 1.3 | 1511.8 ± 1.3 | 1.021 ± 0.021 | 0.9055 ± 0.021 | 0.8105 ± 0.021
m1 = 0.014 | 999.685 ± 0.12 | 998.454 ± 0.13 | 997.167 ± 0.13 | 1486.9 ± 1.3 | 1500.8 ± 1.3 | 1512.8 ± 1.3 | 1.033 ± 0.022 | 0.9168 ± 0.021 | 0.8215 ± 0.021
m1 = 0.018 | 1000.14 ± 0.14 | 998.905 ± 0.13 | 997.524 ± 0.13 | 1487.9 ± 1.7 | 1501.7 ± 1.3 | 1513.8 ± 1.3 | 1.041 ± 0.024 | 0.9239 ± 0.021 | 0.8281 ± 0.021
m1 = 0.022 | 1000.59 ± 0.12 | 999.354 ± 0.13 | 997.945 ± 0.13 | 1488.8 ± 1.3 | 1502.6 ± 1.3 | 1514.6 ± 1.3 | 1.048 ± 0.021 | 0.9315 ± 0.021 | 0.8321 ± 0.021
m1 = 0.026 | 1001 ± 0.13 | 999.746 ± 0.13 | 998.31 ± 0.13 | 1489.7 ± 1.3 | 1503.4 ± 1.3 | 1515.4 ± 1.3 | 1.056 ± 0.021 | 0.9373 ± 0.021 | 0.838 ± 0.021
m1 = 0.03 | 1001.44 ± 0.13 | 1000.14 ± 0.12 | 998.815 ± 0.13 | 1490.2 ± 1.3 | 1504 ± 1.3 | 1516.1 ± 1.3 | 1.063 ± 0.022 | 0.9429 ± 0.021 | 0.8429 ± 0.021
